# Results: US9079930B2, “Substituted pyrimidines” (MERCK SHARP & DOHME CORP., priority 2011, dated 2015)
# pIC50: −log10 of the molar value.
# Target: T1, FLAG-tagged full length PHD2 (Homo sapiens, UniProt Q9GZT9)
# T1 construct: FLAG-tagged full length PHD2 expressed in and purified from baculovirus-infected Sf9 cells; FLAG; made in house; host or cells: baculovirus-infected Sf9 cells
# Test: PHD2 inhibition assay (time resolved fluorescence, HIF-1α peptide hydroxylation, VHL complex detection)
# Type: biochemical
# Conditions: 0.2 μM 2-oxoglutarate, 0.5 μM HIF-1α peptide
# Protocol: To each well of a 96-well plate was added 1 μL of test compound in DMSO and 20 μl of assay buffer (50 mM Tris pH 7.4/0.01% Tween-20/0.1 mg/ml bovine serum albumin/10 μM ferrous sulfate/i mM sodium ascorbate/20 μg/ml catalase) containing 0.15 μg/ml FLAG-tagged full length PHD2 expressed in and purified from baculovirus-infected Sf9 cells. After a 30 min preincubation at room temperature, the enzymatic reactions were initiated by the addition of 4 μL of substrates (final concentrations of 0.2 μM 2-oxoglutarate and 0.5 μM HIF-1α peptide biotinyl-DLDLEMLAPYIPMDDDFQL (SEQ ID NO: 1)). After 2 hr at room temperature, the reactions were terminated and signals were developed by the addition of a 25 μL quench/detection mix to a final concentration of 1 mM ortho-phenanthroline, 0.1 mM EDTA, 0.5 nM anti-(His)6 LANCE reagent (Perkin-Elmer Life Sciences), 100 nM AF647-labeled streptavidin (Invitrogen), and 2 μg/ml (His)6-VHL complex (S. Tan (2001) Protein Expr. Purif. 21, 224-234). The ratio of time resolved fluorescence signals at 665 and 620 nm was determined, and percent inhibition was calculated relative to an uninhibited control sample run in parallel.
# T1 sequence (Q9GZT9 whole entry): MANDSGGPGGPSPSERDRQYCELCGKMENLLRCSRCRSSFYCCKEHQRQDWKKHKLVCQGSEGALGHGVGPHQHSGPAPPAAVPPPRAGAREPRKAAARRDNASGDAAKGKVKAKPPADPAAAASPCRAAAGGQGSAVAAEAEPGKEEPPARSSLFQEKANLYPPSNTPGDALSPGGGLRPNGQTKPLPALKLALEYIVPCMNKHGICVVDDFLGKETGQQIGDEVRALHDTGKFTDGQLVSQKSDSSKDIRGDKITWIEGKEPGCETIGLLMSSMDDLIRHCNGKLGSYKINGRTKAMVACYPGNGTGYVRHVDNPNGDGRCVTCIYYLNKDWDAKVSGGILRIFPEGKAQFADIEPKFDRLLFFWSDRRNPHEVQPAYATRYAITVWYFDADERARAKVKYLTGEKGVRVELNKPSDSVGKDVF
row,Compound,pIC50
1,"CCOP(=O)(OCC)c1ccc(C(NC(=O)c2cnc(-n3cccn3)nc2O)c2ccccc2)cc1 (stereo not shown) [Compound 8-1, Diethyl 4-((4-hydroxy-2-(1H-pyrazol-1-yl)pyrimidine-5-carboxamido)(phenyl)methyl)phenylphosphonate]",7.70 to 9.30
2,"CCOP(=O)(O)c1ccc(C(NC(=O)c2cnc(-n3cccn3)nc2O)c2ccccc2)cc1 (stereo not shown) [Compound 8-2, Ethyl hydrogen 4-((4-hydroxy-2-(1H-pyrazol-1-yl)pyrimidine-5-carboxamido)(phenyl)methyl)phenylphosphonate]",7.70 to 9.30
3,"CCOP(C)(=O)c1ccc(C(NC(=O)c2cnc(-n3cccn3)nc2O)c2ccccc2)cc1 (stereo not shown) [Compound 8-3, Ethyl 4-((4-hydroxy-2-(1H-pyrazol-1-yl)pyrimidine-5-carboxamido)(phenyl)methyl)phenyl(methyl)phosphinate]",7.70 to 9.30
4,"CP(=O)(O)c1ccc(C(NC(=O)c2cnc(-n3cccn3)nc2O)c2ccccc2)cc1 (stereo not shown) [Compound 8-4, 4-((4-Hydroxy-2-(1H-pyrazol-1-yl)pyrimidine-5-carboxamido)(phenyl)methyl)phenyl(methyl)phosphinic acid]",7.70 to 9.30
5,"CCOP(=O)(OCC)c1ccc(C(NC(=O)c2cnc(-c3cccnn3)nc2O)c2ccccc2)cc1 (stereo not shown) [Compound 8-5, Diethyl 4-((4-hydroxy-2-(pyridazin-3-yl)pyrimidine-5-carboxamido)(phenyl)methyl)phenylphosphonate]",7.70 to 9.30
6,"COc1ccc(C(NC(=O)c2cnc(-n3cccn3)nc2O)c2ccc([PH](=O)O)cc2)cc1 (stereo not shown) [Compound 9-1, 4-((4-Hydroxy-2-(1H-pyrazol-1-yl)pyrimidine-5-carboxamido)(4-methoxyphenyl)methyl)phenylphosphinic acid]",7.70 to 9.30
7,"COc1ccc(C(NC(=O)c2cnc(-c3cccnn3)nc2O)c2ccc([PH](=O)O)cc2)cc1 (stereo not shown) [Compound 9-2, 4-((4-hydroxy-2-(pyridazin-3-yl)pyrimidine-5-carboxamido)(4-methoxyphenyl)methyl)phenylphosphinic acid]",7.70 to 9.30
8,"CCOP(=O)(OCC)C(NC(=O)c1cnc(-n2cccn2)nc1O)c1ccc(OC)cc1 (stereo not shown) [Compound 10-1, Diethyl (4-hydroxy-2-(1H-pyrazol-1-yl)pyrimidine-5-carboxamido)(4-methoxyphenyl)methylphosphonate]",7.70 to 9.30
9,"CCOP(=O)(OCC)c1ccc(C(C)C(=O)Nc2cnc(-n3cccn3)nc2O)cc1 (stereo not shown) [Compound 11-1, Diethyl 4-(1-(4-hydroxy-2-(1H-pyrazol-1-yl)pyrimidin-5-ylamino)-1-oxopropan-2-yl)phenylphosphonate]",5.00 to 7.00
10,"CCOP(=O)(OCC)c1ccc(C(C)(C)C(=O)Nc2cnc(-n3cccn3)nc2O)cc1 [Compound 12-1, Diethyl 4-(1-(4-hydroxy-2-(1H-pyrazol-1-yl)pyrimidin-5-ylamino)-2-methyl-1-oxopropan-2-yl)phenylphosphonate]",5.00 to 7.00
11,"CCOP(=O)(OCC)c1ccc(C(C(=O)Nc2cnc(-n3cccn3)nc2O)C(C)C)cc1 (stereo not shown) [Compound 13-1, Diethyl 4-(1-(4-hydroxy-2-(1H-pyrazol-1-yl)pyrimidin-5-ylamino)-3-methyl-1-oxobutan-2-yl)phenylphosphonate]",7.00 to 7.70
12,"CCOP(=O)(OCC)c1ccc(C(C(=O)Nc2cnc(-n3cccn3)nc2O)c2ccccc2)cc1 (stereo not shown) [Compound 14-1, Diethyl 4-(2-(4-hydroxy-2-(1H-pyrazol-1-yl)pyrimidin-5-ylamino)-2-oxo-1-phenylethyl)phenylphosphonate]",7.70 to 9.30
13,"CCOP(=O)(OCC)c1ccc(C(C(=O)Nc2cnc(-c3cccnn3)nc2O)c2ccccc2)cc1 (stereo not shown) [Compound 14-2, Diethyl 4-(2-(4-hydroxy-2-(pyridazin-3-yl)pyrimidin-5-ylamino)-2-oxo-1-phenylethyl)phenylphosphonate]",5.00 to 7.00
14,"CC(NC(=O)c1cnc(-n2cccn2)nc1O)c1ccc(P(=O)(O)O)cc1 (stereo not shown) [Compound 15-1, 4-(1-(4-hydroxy-2-(1H-pyrazol-1-yl)pyrimidine-5-carboxamido)ethyl)phenylphosphonic acid]",7.00 to 7.70
15,"C[C@@H](NC(=O)c1cnc(-n2cccn2)nc1O)c1ccc(P(=O)(O)O)cc1 [Compound 15-2, (R)-4-(1-(4-hydroxy-2-(1H-pyrazol-1-yl)pyrimidine-5-carboxamido)ethyl)phenyl phosphonic acid]",7.70 to 9.30
16,"C[C@H](NC(=O)c1cnc(-n2cccn2)nc1O)c1ccc(P(=O)(O)O)cc1 [Compound 15-3, (S)-4-(1-(4-hydroxy-2-(1H-pyrazol-1-yl)pyrimidine-5-carboxamido)ethyl)phenylphosphonic acid]",5.00 to 7.00
17,"CCCP(=O)(O)c1ccc(C(NC(=O)c2cnc(-n3cccn3)nc2O)c2ccccc2)cc1 (stereo not shown) [Compound 16-1, 4-((4-hydroxy-2-(1H-pyrazol-1-yl)pyrimidine-5-carboxamido)(phenyl)methyl)phenyl(propyl)phosphinic acid]",7.70 to 9.30
18,"CP(=O)(O)c1ccc(C(NC(=O)c2cnc(-n3cccn3)nc2O)c2ccc(F)cc2)cc1 (stereo not shown) [Compound 17-1, 4-((4-fluorophenyl)(4-hydroxy-2-(1H-pyrazol-1-yl)pyrimidine-5-carboxamido)methyl)phenyl(methyl)phosphinic acid]",7.70 to 9.30
19,"CP(=O)(O)c1ccc([C@H](NC(=O)c2cnc(-n3cccn3)nc2O)c2ccc(F)cc2)cc1 [Compound 18-1, 4-((R)-(4-fluorophenyl)(4-hydroxy-2-(1H-pyrazol-1-yl)pyrimidine-5-carboxamido)methyl)phenyl(methyl)phosphinic acid]",7.70 to 9.30

# Next, values leading:
row,pIC50,Compound
1,7.70 to 9.30,"CP(=O)(O)c1ccc([C@@H](NC(=O)c2cnc(-n3cccn3)nc2O)c2ccc(F)cc2)cc1 [Compound 19-1, 4-((S)-(4-fluorophenyl)(4-hydroxy-2-(1H-pyrazol-1-yl)pyrimidine-5-carboxamido)methyl)phenyl(methyl)phosphinic acid]"
2,7.70 to 9.30,"CP(=O)(O)c1ccc([C@@H](NC(=O)c2cnc(-n3cccn3)nc2O)c2ccc(F)cc2F)cc1 [Compound 20-1, 4-((R)-(2,4-difluorophenyl)(4-hydroxy-2-(1H-pyrazol-1-yl)pyrimidine-5-carboxamido)methyl)phenyl(methyl)phosphinic acid]"
3,7.70 to 9.30,"CP(=O)(O)c1ccc([C@H](NC(=O)c2cnc(-n3cccn3)nc2O)c2ccc(F)cc2F)cc1 [Compound 21-1, 4-((S)-(2,4-difluorophenyl)(4-hydroxy-2-(1H-pyrazol-1-yl)pyrimidine-5-carboxamido)methyl)phenyl(methyl)phosphinic acid]"
4,7.70 to 9.30,"CP(=O)(O)c1ccc([C@@H](NC(=O)c2cnc(-n3cccn3)nc2O)c2ccccc2)cc1 [Compound 22-1, 4-((S)-(4-hydroxy-2-(1H-pyrazol-1-yl)pyrimidine-5-carboxamido)(phenyl)methyl)phenyl(methyl)phosphinic acid]"
5,7.70 to 9.30,"CP(=O)(O)c1ccc([C@H](NC(=O)c2cnc(-n3cccn3)nc2O)c2ccccc2)cc1 [Compound 23-1, 4-((R)-(4-hydroxy-2-(1H-pyrazol-1-yl)pyrimidine-5-carboxamido)(phenyl)methyl)phenyl(methyl)phosphinic acid]"
6,7.70 to 9.30,"CP(=O)(O)c1cccc([C@H](NC(=O)c2cnc(-n3cccn3)nc2O)c2ccccc2)c1 [Compound 24-1, 3-((R)-(4-hydroxy-2-(1H-pyrazol-1-yl)pyrimidine-5-carboxamido)(phenyl)methyl)phenyl(methyl)phosphinic acid]"
7,7.70 to 9.30,"CP(=O)(O)c1cccc([C@@H](NC(=O)c2cnc(-n3cccn3)nc2O)c2ccccc2)c1 [Compound 25-1, 3-((S)-(4-hydroxy-2-(1H-pyrazol-1-yl)pyrimidine-5-carboxamido)(phenyl)methyl)phenyl(methyl)phosphinic acid]"
8,7.70 to 9.30,"CP(=O)(O)c1ccc([C@H](NC(=O)c2cnc(-n3cccn3)nc2O)C2CCCCC2)cc1 [Compound 26-1, 4-((R)-cyclohexyl(4-hydroxy-2-(1H-pyrazol-1-yl)pyrimidine-5-carboxamido)methyl)phenyl(methyl)phosphinic acid]"
9,7.70 to 9.30,"CP(=O)(O)c1ccc([C@@H](NC(=O)c2cnc(-n3cccn3)nc2O)C2CCCCC2)cc1 [Compound 27-1, 4-((S)-cyclohexyl(4-hydroxy-2-(1H-pyrazol-1-yl)pyrimidine-5-carboxamido)methyl)phenyl(methyl)phosphinic acid]"
10,5.00 to 7.00,"CP(=O)(O)c1ccc([C@@H](NC(=O)c2cnc(-n3cc(F)cn3)nc2O)c2ccc(F)cc2)cc1 [Compound 28-1, 4-((S)-(2-(4-fluoro-1H-pyrazol-1-yl)-4-hydroxypyrimidine-5-carboxamido)(4-fluorophenyl)methyl)phenyl(methyl)phosphinic acid]"
11,7.70 to 9.30,"CP(=O)(O)c1ccc([C@H](NC(=O)c2cnc(-n3cc(F)cn3)nc2O)c2ccc(F)cc2)cc1 [Compound 29-1, 4-((R)-(2-(4-fluoro-1H-pyrazol-1-yl)-4-hydroxypyrimidine-5-carboxamido)(4-fluorophenyl)methyl)phenyl(methyl)phosphinic acid]"
12,7.00 to 7.70,"O=C(NC(c1ccccc1)P(=O)(O)O)c1cnc(-c2cccnn2)nc1O (stereo not shown) [Compound 30-1, (4-hydroxy-2-(pyridazin-3-yl)pyrimidine-5-carboxamido)(phenyl)methylphosphonic acid]"
